From the NIST ThermoML archive (doi:10.1016/j.jct.2019.04.020)
Numbers after ± are expanded uncertainties.

Settings: Liquid, Closed cell (Static) method

| SMILES | vapor or sublimation pressure (293.15 K) | vapor or sublimation pressure (303.15 K) | vapor or sublimation pressure (313.15 K) | vapor or sublimation pressure (323.14 K) |
| --- | --- | --- | --- | --- |
| FCC(F)(F)F [1,1,1,2-tetrafluoroethane] | 571.1 ± 5.1 kPa | 771.4 ± 5.2 kPa | 1018.1 ± 5.3 kPa | 1316.9 ± 5.5 kPa |
| FCF [difluoromethane] | 1473.2 ± 5.7 kPa | 1926.7 ± 6.1 kPa | 2476.3 ± 6.6 kPa | 3142.2 ± 7.2 kPa |
| F/C=C/C(F)(F)F [trans-1,3,3,3-tetrafluoropropene] | 427.4 ± 5.1 kPa | 577.6 ± 5.1 kPa | 765.3 ± 5.2 kPa | 997.8 ± 5.3 kPa |
